Reference: patent US20260083687A1, “COMPOUNDS FOR REDUCING LACTATION AND IMPROVING HEALTH” (AHV International B.V., priority 2022, published 2026)

Tested on: cows (Holstein Friesians)
Test: Dose-response DPD treatment and milk yield (Example 2)
Type: in vivo, cow
Conditions: for Milk yield Last milking: before administration; for % reduction after 24 h / % reduction after 48 h / % reduction after 72 h / % reduction after 96 h: vs milk yield before treatment
Description: Study design. Twenty-seven cows (Holstein Friesians) from 2 farms were used. […] The cows were milked twice a day. The cows were housed in free stables.
[…] For each dosage 3 cows were used.

Q: `CCCSSCCC` [DPD, di-n-propyl disulfide] was tested. Which “Average reduction 24 and 48 h (%)” value (10 ml DPD) did it give?
A: Its value is −3.3%.

Q: And the “Milk yield After 24 h” value (10 ml DPD)?
A: The value was 14.45 kg.

Q: And the “Milk yield After 48 h” value (10 ml DPD)?
A: The value was 13.98 kg.

Q: What about the “Milk yield After 72 h” value (10 ml DPD) of the same molecule?
A: Its value is 12.99 kg.

Q: And the “Milk yield After 96 h” value (10 ml DPD)?
A: The value was 13.78 kg.

Q: And the “Milk yield Last milking” value (10 ml DPD)?
A: The value was 13.76 kg.

Q: What about the “% reduction after 24 h” value (10 ml DPD) of the same molecule?
A: Its value is −5%.

Q: And the “% reduction after 48 h” value (10 ml DPD)?
A: Its value is −1.6%.

Q: And the “% reduction after 72 h” value (10 ml DPD)?
A: The value was 5.6%.

Q: What about the “% reduction after 96 h” value (10 ml DPD) of the same molecule?
A: Its value is 0%.

Q: What about the “Average reduction 24 and 48 h (%)” value (20 ml DPD) of the same molecule?
A: Its value is 23%.

Q: And the “Milk yield After 24 h” value (20 ml DPD)?
A: Its value is 9.42 kg.

Q: What about the “Milk yield After 48 h” value (20 ml DPD) of the same molecule?
A: Its value is 10.2 kg.

Q: What about the “Milk yield After 72 h” value (20 ml DPD) of the same molecule?
A: The value was 12.93 kg.

Q: And the “Milk yield After 96 h” value (20 ml DPD)?
A: The value was 12.68 kg.

Q: What about the “effect on milk yield compared to the milk yield before treatment” value (20 ml DPD) of the same molecule?
A: The value was “clear lowering on milk yield”.

Q: What about the “Milk yield Last milking” value (20 ml DPD) of the same molecule?
A: Its value is 12.72 kg.

Q: And the “% reduction after 24 h” value (20 ml DPD)?
A: Its value is 26%.

Q: And the “% reduction after 48 h” value (20 ml DPD)?
A: The value was 20%.

Q: And the “% reduction after 72 h” value (20 ml DPD)?
A: Its value is −1.7%.

Q: And the “% reduction after 96 h” value (20 ml DPD)?
A: Its value is 0%.

Q: And the “Average reduction 24 and 48 h (%)” value (50 ml DPD)?
A: The value was 33%.

Q: And the “Milk yield After 24 h” value (50 ml DPD)?
A: The value was 10.03 kg.

Q: What about the “Milk yield After 48 h” value (50 ml DPD) of the same molecule?
A: The value was 8.38 kg.

Q: What about the “Milk yield After 72 h” value (50 ml DPD) of the same molecule?
A: Its value is 14.16 kg.

Q: And the “Milk yield After 96 h” value (50 ml DPD)?
A: Its value is 13.68 kg.

Q: And the “Milk yield Last milking” value (50 ml DPD)?
A: The value was 13.73 kg.

Q: And the “% reduction after 24 h” value (50 ml DPD)?
A: Its value is 27%.

Q: What about the “% reduction after 48 h” value (50 ml DPD) of the same molecule?
A: The value was 39%.

Q: And the “% reduction after 72 h” value (50 ml DPD)?
A: The value was −3.1%.

Q: What about the “% reduction after 96 h” value (50 ml DPD) of the same molecule?
A: Its value is 0%.

Q: And the “Average reduction 24 and 48 h (%)” value (80 ml DPD)?
A: Its value is 55%.

Q: And the “Milk yield After 24 h” value (80 ml DPD)?
A: The value was 8.46 kg.

Q: And the “Milk yield After 48 h” value (80 ml DPD)?
A: Its value is 7.40 kg.

Q: And the “Milk yield After 72 h” value (80 ml DPD)?
A: Its value is 15.63 kg.

Q: And the “Milk yield After 96 h” value (80 ml DPD)?
A: The value was 17.65 kg.

Q: What about the “Milk yield Last milking” value (80 ml DPD) of the same molecule?
A: The value was 17.63 kg.

Q: What about the “% reduction after 24 h” value (80 ml DPD) of the same molecule?
A: The value was 52%.

Q: What about the “% reduction after 48 h” value (80 ml DPD) of the same molecule?
A: Its value is 58%.

Q: What about the “% reduction after 72 h” value (80 ml DPD) of the same molecule?
A: The value was 11.3%.

Q: And the “% reduction after 96 h” value (80 ml DPD)?
A: The value was 0%.

Q: And the “behavior of the cows” value (80 ml or more DPD)?
A: The value was “became restless and showed a more active behavior”.

Q: What about the “Average reduction 24 and 48 h (%)” value (100 ml DPD) of the same molecule?
A: Its value is 51%.

Q: What about the “Milk yield After 24 h” value (100 ml DPD) of the same molecule?
A: The value was 8.12 kg.

Q: What about the “Milk yield After 48 h” value (100 ml DPD) of the same molecule?
A: The value was 8.44 kg.

Q: And the “Milk yield After 72 h” value (100 ml DPD)?
A: Its value is 13.33 kg.

Q: What about the “Milk yield After 96 h” value (100 ml DPD) of the same molecule?
A: The value was 16.55 kg.

Q: What about the “Milk yield Last milking” value (100 ml DPD) of the same molecule?
A: The value was 16.23 kg.

Q: What about the “% reduction after 24 h” value (100 ml DPD) of the same molecule?
A: The value was 50%.

Q: And the “% reduction after 48 h” value (100 ml DPD)?
A: Its value is 52%.

Q: What about the “% reduction after 72 h” value (100 ml DPD) of the same molecule?
A: The value was 17.9%.

Q: And the “% reduction after 96 h” value (100 ml DPD)?
A: The value was −0.2%.

Q: What about the “Average reduction 24 and 48 h (%)” value (150 ml DPD) of the same molecule?
A: Its value is 62%.

Q: What about the “Milk yield After 24 h” value (150 ml DPD) of the same molecule?
A: Its value is 8.72 kg.

Q: And the “Milk yield After 48 h” value (150 ml DPD)?
A: Its value is 5.17 kg.

Q: What about the “Milk yield After 72 h” value (150 ml DPD) of the same molecule?
A: Its value is 11.24 kg.

Q: What about the “Milk yield After 96 h” value (150 ml DPD) of the same molecule?
A: The value was 14.63 kg.

Q: And the “Milk yield Last milking” value (150 ml DPD)?
A: The value was 14.78 kg.

Q: What about the “% reduction after 24 h” value (150 ml DPD) of the same molecule?
A: Its value is 59%.

Q: What about the “% reduction after 48 h” value (150 ml DPD) of the same molecule?
A: The value was 65%.

Q: And the “% reduction after 72 h” value (150 ml DPD)?
A: The value was 24%.

Q: And the “% reduction after 96 h” value (150 ml DPD)?
A: Its value is 0%.

Q: And the “Average reduction 24 and 48 h (%)” value (175 ml DPD)?
A: Its value is 55%.

Q: And the “Milk yield After 24 h” value (175 ml DPD)?
A: The value was 8.44 kg.

Q: And the “Milk yield After 48 h” value (175 ml DPD)?
A: The value was 8.75 kg.

Q: And the “Milk yield After 72 h” value (175 ml DPD)?
A: The value was 13.24 kg.

Q: And the “Milk yield Last milking” value (175 ml DPD)?
A: The value was 15.63 kg.

Q: And the “% reduction after 24 h” value (175 ml DPD)?
A: The value was 54%.

Q: What about the “% reduction after 48 h” value (175 ml DPD) of the same molecule?
A: Its value is 56%.

Q: What about the “% reduction after 72 h” value (175 ml DPD) of the same molecule?
A: The value was 15.3%.

Q: What about the “Average reduction 24 and 48 h (%)” value (200 ml DPD) of the same molecule?
A: The value was 52%.

Q: What about the “Milk yield After 24 h” value (200 ml DPD) of the same molecule?
A: Its value is 11.29 kg.

Q: And the “Milk yield After 48 h” value (200 ml DPD)?
A: Its value is 10.87 kg.

Q: And the “Milk yield After 72 h” value (200 ml DPD)?
A: The value was 13.56 kg.

Q: And the “Milk yield Last milking” value (200 ml DPD)?
A: Its value is 21.31 kg.

Q: What about the “% reduction after 24 h” value (200 ml DPD) of the same molecule?
A: The value was 53%.

Q: What about the “% reduction after 48 h” value (200 ml DPD) of the same molecule?
A: The value was 51%.

Q: What about the “% reduction after 72 h” value (200 ml DPD) of the same molecule?
A: The value was 36.4%.

Q: And the “behavior and eating behavior of the cows” value (after DPD administration)?
A: Its value is “relaxed and quiet behavior and no change in eating behavior was observed”.

Q: What about the adverse effects (dose of 200 grams administered to a cow) of the same molecule?
A: Its adverse effects is “without demonstrating any adverse effects”.

Q: And the “effect on milk yield” value (more than 80 ml DPD)?
A: The value was “no further decrease of milk yield was observed”.

Q: What about the “behavior of the cows” value (more than 100 ml DPD) of the same molecule?
A: The value was “looked like to become more active”.

Q: What about the “dosage at which the milk yield decrease became visible” value (single oral dose) of the same molecule?
A: The value was no less than 20 mL.

Q: And the “dosage giving maximum response (milk yield decrease)” value (single oral dose)?
A: The value was no less than 80 mL.

Q: What about the “duration of the effect of DPD on milk yield” value (single oral dose) of the same molecule?
A: The value was “disappears on the 3rd and 4th day after treatment”.

Q: And the “behavior of the cows” value (until 80 ml DPD)?
A: Its value is “no undesired behavior of the cows was observed”.
